Columns and labels:
Assay type in all cases: cell-based
[1] = tested on: bacterial cells
[2] = tested on: E. coli ATCC 25922; test: Nebulisation simulation, kill efficiency on inoculated bandage; details: for performance of the novel iodophor relative to the labelled antibiotic: nebulised, 15 minutes, Levofloxacin and Polymyxin B at all concentrations, Gentamycin 0.1 mg and 1 mg
[3] = tested on: P. aeruginosa; test: as above; details: 1 mL nebulised, 15 minutes exposure, FIG. 6
[4] = tested on: E. coli ATCC 25922; test: MIC micro-broth dilution

## OO [Hydrogen peroxide]
[1]
  recovery of viable bacterial cells: recovery of viable cells
[2]; 1 mL nebulised, 15 minutes exposure, FIG. 5
  killing efficiency: limited killing efficiency
[3]
  killing efficiency: limited killing efficiency

## Gentamycin
[2]
  performance of the novel iodophor relative to the labelled antibiotic: superior

## Polymyxin B
[2]
  performance of the novel iodophor relative to the labelled antibiotic: equivalent performance

## polyvinylpyrrolidone iodine [PVP-I]
[4]; in lysogeny broth (LB), text of b30
  MIC: 500 µg/mL
[4]; in water
  minimum inhibitory concentration (MIC): < 1 µg/mL
[4]; organic rich growth medium (such as lysogeny broth)
  MBC value: > 500 µg/mL
